Consider one molecule from patent US20240189265A1, “COMPOSITIONS AND TECHNIQUES FOR VAGINAL INSERTION” (Daré Bioscience, Inc., priority 2021, published 2024).

The nature of series [1]: Solubility of drug substance in simulated vaginal fluid. Particulars: fassgf or other biorelevant. It is filed as physicochemical.
Series [2] is described as follows: Compatibility of Diclofenac Sodium in Gel Formulation 1. It is filed as physicochemical. Particulars: 2%, 3% gels, viscosity, pH, appearance. From the text:
Variation in pH was reported between prototypes but was expected due to the chemical nature of the API.

By solubility is commonly meant how much of the substance goes into solution per volume. High values mean a readily soluble substance, low ones a poorly soluble substance. Molecule `O=C(O)Cc1ccccc1Nc1c(Cl)cccc1Cl` [Diclofenac Sodium] registered a solubility in series [1] of around 16 µg/mL. Besides, the “compatibility with the Gel Formulation 1 composition” value in series [2] is recorded as “Compatible”.
